Patent publication US20190350964A1, “ANTI-CANCER COMPOUNDS AND USES THEREOF” (NATIONAL UNIVERSITY OF SINGAPORE, priority 2016, published 2019)

Experiments:
[1] = system: human normal cell lines; test: MTT cytotoxicity test, panel of human normal cell lines; assay type: cell-based; conditions: mean over panel of human normal cell lines; MTT 72 h
[2] = system: NCC24; test: MTT cytotoxicity test (GI50); assay type: cell-based; conditions: Homo sapiens; NCC24, cancer, gastric; MTT 72 h
[3] = system: Hep3; test: MTT cytotoxicity test (GI50); assay type: cell-based; conditions: Homo sapiens; Hep3, cancer, liver; MTT 72 h
[4] = system: BJ normal; test: MTT cytotoxicity test (GI50); assay type: cell-based; conditions: Homo sapiens, skin, MTT 72 h
[5] = system: human cancer cell lines; test: MTT cytotoxicity test, panel of human cancer cell lines; assay type: cell-based; conditions: mean over panel of human cancer cell lines; MTT 72 h
[6] = system: SNU-16; test: MTT cytotoxicity test (GI50); assay type: cell-based; conditions: Homo sapiens; SNU-16, cancer, gastric; MTT 72 h
[7] = system: NCC19; test: MTT cytotoxicity test (GI50); assay type: cell-based; conditions: Homo sapiens; NCC19, cancer, gastric; MTT 72 h
[8] = system: HeLa; test: MTT cytotoxicity test (GI50); assay type: cell-based; conditions: Homo sapiens, cancer, others, cervix, MTT 72 h
[9] = system: PIK3IP1; test: qRT-PCR of PIK3IP1 mRNA in Ras- or Raf-mutant cancer cell lines; assay type: cell-based, human; conditions: 2.5 and 5 μM, 24 h; compared with normal cells
Experimental: […] human […] ID NO: 11, [NT] ID NO: 12), human […] ID NO: 13, [NT] ID NO: 14), human […] ID NO: 15, [NT] ID NO: 16) and human PIK3IP1 ([NT] ID NO: 17, [NT] ID NO: 18). The TATA-binding protein (TBP) gene was used for normalization. All PCR reactions were performed in triplicate.

[10] = molecular target: T1, RNA-binding motif, single-stranded-interacting protein 1 (Homo sapiens, UniProt P29558); test: MS-CETSA in normal BJ cell lysates; conditions: Uniprot B4DN88, lysate, 100 μM compound
T1 construct: After collecting data covering >8,000 proteins in lysates of normal BJ cells; endogenous in cells; host or cells: normal BJ cells, lysate
Experimental: (§1) Target identification was performed by cellular thermal shift assay (CETSA) coupled with quantitative mass spectrometry. In brief, normal BJ cells were lysed by combination of freeze/thaw and mechanical shearing with needle in buffer [50 mM HEPES (pH 7.5), 5 mM β-glycerophosphate, 0.1 mM Sodium Vanadate, 10 mM MgCl2, 1 mM TCEP and 1× Protease inhibitor Cocktail]. The cell debris was removed by centrifugation at 20,000 g for 20 min at 4° C. […] Each lysate was divided into 10 aliquots for heat treatment at the respective temperatures for 3 min in a 96-well thermocycler, followed by 3 min at 4° C. The lysate was centrifuged at 20,000 g for 20 min at 4° C. and the supernatant was transferred into microtubes for MS sample preparation.
(§2) After lysis, at least 100 μg of the protein (measured with a BCA assay) was subjected to reduction, denaturation and alkylation. Samples were subsequently incubated with sequencing grade LysC (Wako) and trypsin (Promega) for digestion overnight at 37° C. The digested samples were dried using a centrifugal vacuum evaporator, solubilized in 100 mM TEAB. […]
(§3) Proteins for which a low temperature plateau was not present were deleted using a cut off >0.85 for the average reading of the first three temperature points (in our experience proteins melting already at −37° C. are more prone to give false positives in a shift analysis).

[11] = molecular target: T2, Arsenite methyltransferase (Homo sapiens, UniProt Q9HBK9); test: MS-CETSA in normal BJ cell lysates; assay type: binding; conditions: lysate, 100 μM compound
T2 construct: After collecting data covering >8,000 proteins in lysates of normal BJ cells; endogenous in cells; host or cells: normal BJ cells, lysate
Experimental: as §1, §2, §3

[12] = system: AZ521; test: MTT cytotoxicity test (GI50); assay type: cell-based; conditions: Homo sapiens, AZ-521; AZ521, cancer, gastric; MTT 72 h
[13] = system: Ras-driven glioma initiating cells (GICs); test: Sphere formation assay; assay type: cell-based, murine; conditions: 5 μM, 7 days
Experimental: Murine glioma-initiating cells (GICs) were established and cultured as described previously (Saga, I. et al., Neuro. Oncol. 16: 1048-1056 (2014)). Briefly, Ink4a/Arf-null neural stem/progenitor cells were transduced with human H-RasV12 and DsRed and propagated in serum-free Dulbecco modified Eagle medium (DMEM)/F12 (Sigma-Aldrich) supplemented with recombinant epidermal growth factor (EGF; PeproTech) and basic fibroblast growth factor (PeproTech) at 20 ng/ml, heparan sulfate (Sigma-Aldrich) at 200 ng/ml and B27 supplement without vitamin A (Invitrogen, Carlsbad, Calif.). GICs were dissociated and plated in 96-well plates at a density of 100 cells/well. […] Three plates were prepared for each treatment group, and 30 wells were quantified per plate. Images were acquired on a BZ-X700 inverted fluorescence microscope (Keyence). Quantification was performed by Nikon NIS-element software (n=90).

[14] = molecular target: T3, Coproporphyrinogen-III oxidase, mitochondrial (Homo sapiens, UniProt P36551); test: MS-CETSA in normal BJ cell lysates; assay type: binding; conditions: lysate, 100 μM compound
T3 construct: After collecting data covering >8,000 proteins in lysates of normal BJ cells; endogenous in cells; host or cells: normal BJ cells, lysate
Experimental: as §1, §2, §3

[15] = system: HCT15; test: MTT cytotoxicity test (GI50); assay type: cell-based; conditions: Homo sapiens, HCT-15; HCT15, cancer, colon; MTT 72 h
[16] = system: PI3K/Akt/mTOR pathway; test: Immunoblot of phosphorylated Akt and p70S6K; assay type: cell-based, human; conditions: normal versus transformed BJ cells, 24 h
Experimental: Total cell lysates were prepared with 1% triton lysis buffer [25 mM Tris HCl (pH 8.0), 150 mM NaCl, 1% triton-X100, 1 mM dithiothreitol (DTT), protease inhibitor mix (Complete Mini, Roche) and phosphatase inhibitor (PhosphoStop, Roche)] and subjected to SDS-PAGE. The following antibodies were used for immunoblotting: anti-β-actin (Sigma-Aldrich), anti-cleaved PARP (Abcam, #ab32064), anti-PI5P4Kα (#5527), anti-PI5P4Kβ (#9694), anti-cleaved caspase-3 (#9664), anti-pHistone H3(Ser10) (#3377), anti-pAkt(S473) (#9271), anti-pAkt(T308) (#13038), anti-total Akt (#9272), anti-p70S6K(T389) (#9234), anti-total p70S6K (#9202), anti-pErk (#4370), anti-γ-Histone H2AX (#9718) (Cell signaling) and anti-PIK3IP1 (Proteintech, #16826-1-AP). The secondary antibodies used were sheep anti-mouse IgG HRP and donkey anti-rabbit IgG HRP (Amersham; 1:2000 dilution). Immunoreactive proteins were visualized using ECL reagent (Amersham). Where indicated, intensities of protein bands were quantified by densitometry (Odyssey V3.0), normalized to their loading controls and then calculated as fold expression change relative to DMSO control.

[17] = system: HGC27; test: MTT cytotoxicity test (GI50); assay type: cell-based; conditions: Homo sapiens, HGC-27; HGC27, cancer, gastric; MTT 72 h
[18] = system: SNU1750; test: MTT cytotoxicity test (GI50); assay type: cell-based; conditions: Homo sapiens; SNU1750, cancer, gastric; MTT 72 h
[19] = system: IM95; test: MTT cytotoxicity test (GI50); assay type: cell-based; conditions: Homo sapiens; IM95, cancer, gastric; MTT 72 h
[20] = system: MDA-MB-231; test: MTT cytotoxicity test (GI50); assay type: cell-based; conditions: Homo sapiens; MDA-MB-231, cancer, breast; MTT 72 h
[21] = molecular target: T4, MIP18 family protein FAM96A (Homo sapiens, UniProt Q9H5X1); test: MS-CETSA in normal BJ cell lysates; assay type: binding; conditions: lysate, 100 μM compound
T4 construct: After collecting data covering >8,000 proteins in lysates of normal BJ cells; endogenous in cells; host or cells: normal BJ cells, lysate
Experimental: as §1, §2, §3

[22] = system: SNU1; test: MTT cytotoxicity test (GI50); assay type: cell-based; conditions: Homo sapiens; SNU1, cancer, gastric; MTT 72 h

T1 sequence (P29558 whole entry): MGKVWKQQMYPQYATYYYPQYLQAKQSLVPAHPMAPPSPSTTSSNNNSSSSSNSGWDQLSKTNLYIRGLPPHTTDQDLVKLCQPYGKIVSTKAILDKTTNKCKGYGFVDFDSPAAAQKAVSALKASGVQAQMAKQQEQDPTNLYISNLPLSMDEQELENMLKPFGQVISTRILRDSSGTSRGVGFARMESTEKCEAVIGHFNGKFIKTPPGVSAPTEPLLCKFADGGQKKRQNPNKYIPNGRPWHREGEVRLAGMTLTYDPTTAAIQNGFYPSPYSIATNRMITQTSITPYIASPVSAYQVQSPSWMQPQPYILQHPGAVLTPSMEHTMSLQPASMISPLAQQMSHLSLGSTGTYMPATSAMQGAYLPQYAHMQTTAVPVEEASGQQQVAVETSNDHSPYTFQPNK
T4 sequence (Q9H5X1 whole entry): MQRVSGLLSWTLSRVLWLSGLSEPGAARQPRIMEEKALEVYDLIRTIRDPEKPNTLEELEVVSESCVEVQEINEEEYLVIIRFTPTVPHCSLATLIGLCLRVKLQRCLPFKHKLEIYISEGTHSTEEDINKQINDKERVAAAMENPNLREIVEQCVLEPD
T2 sequence (Q9HBK9 whole entry): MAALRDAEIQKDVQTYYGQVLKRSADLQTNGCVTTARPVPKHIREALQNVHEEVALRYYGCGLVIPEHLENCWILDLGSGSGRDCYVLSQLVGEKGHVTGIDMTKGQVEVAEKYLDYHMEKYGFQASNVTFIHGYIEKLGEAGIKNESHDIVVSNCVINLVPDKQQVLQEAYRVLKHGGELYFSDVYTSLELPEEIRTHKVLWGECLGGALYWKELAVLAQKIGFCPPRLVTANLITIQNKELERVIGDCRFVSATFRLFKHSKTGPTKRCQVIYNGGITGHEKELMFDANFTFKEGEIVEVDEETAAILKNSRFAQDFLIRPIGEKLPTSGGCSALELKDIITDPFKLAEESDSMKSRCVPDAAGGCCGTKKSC
T3 sequence (P36551 111-454): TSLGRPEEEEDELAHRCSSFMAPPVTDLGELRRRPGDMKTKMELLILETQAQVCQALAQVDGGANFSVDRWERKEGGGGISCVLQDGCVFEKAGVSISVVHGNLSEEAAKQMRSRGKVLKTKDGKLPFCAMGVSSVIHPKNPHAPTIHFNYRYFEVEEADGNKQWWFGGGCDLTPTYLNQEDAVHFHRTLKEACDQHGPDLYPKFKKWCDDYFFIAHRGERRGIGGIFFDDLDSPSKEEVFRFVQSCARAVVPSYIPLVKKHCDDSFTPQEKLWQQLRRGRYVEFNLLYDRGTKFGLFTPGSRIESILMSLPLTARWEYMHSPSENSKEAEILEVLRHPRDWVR

Work on `N#C/C(=C\c1cccc2cnccc12)c1c[nH]c2ccccc12` [a131, (Z)-2-(1H-indol-3-yl)-3-(5-isoquinolyl)prop-2-enenitrile] yielded a GI50 [1] of 6500 nM, a GI50 [2] of 1200 nM and a GI50 [3] of 3700 nM. For the same compound, the GI50 [4] was 8100 nM, the GI50 [5] was 1700 nM and the GI50 [6] was 1000 nM. For the same compound, the GI50 [7] was 4600 nM, the GI50 [8] was 1400 nM and the “induction of PIK3IP1 in Ras- and Raf-mutant cancer cells” value [9] was “significantly attenuated”. It also gave an ED score [10] of 0.3144, a ΔTm at 100 µM ([10]; read-out: mean Delta Tm) of 2.01 °C and an ED score [11] of 0.6214. For the same compound, the ΔTm at 100 µM ([11]; read-out: mean Delta Tm) was 4.88 °C, the GI50 [12] was 2400 nM and the “growth of GICs in tumor spheroid culture” value [13] was “significantly suppressed growth”. It also gave an ED score [14] of 0.3274, a ΔTm at 100 µM ([14]; read-out: mean Delta Tm) of 1.61 °C and a GI50 [15] of 500 nM. For the same compound, the “inhibition of the PI3K/Akt/mTOR pathway” value [16] was “consistently caused inhibition of the PI3K/Akt/mTOR pathway only in normal BJ cells, but not in transformed counterparts”, the GI50 [17] was 1200 nM and the GI50 [18] was 700 nM. The GI50 [19] was 1000 nM, the GI50 [20] was 1100 nM and the ED score [21] was 0.291. The ΔTm at 100 µM ([21]; read-out: mean Delta Tm) was 2.17 °C and the GI50 [22] was 900 nM.
